Laboratory results from US11352339B2 (MISSION THERAPEUTICS LIMITED, priority 2016, dated 2022).
pIC50: −log10 of the molar value.

target: USP30 (Homo sapiens (Human), UniProt Q70CQ3); experiment: USP30 Biochemical IC50 Assay; settings: fluorescence polarisation, TAMRA labelled peptide linked to ubiquitin; 30 min pre-incubation, read after 2 h; read-out: IC50 range
Experimental: Reactions were performed in duplicate in black 384 well plates (small volume, Greiner 784076) in a final reaction volume of 21 μl. Either 1 μl of 50% DMSO or diluted compound was added to the plate. […] Enzyme and compound were incubated for 30 min at room temp. Reactions were initiated by the addition of 50 nM of TAMRA labelled peptide linked to ubiquitin via an iso-peptide bond as fluorescence polarisation substrate. Reactions were read immediately after addition of substrate and following a 2 h incubation at room temperature. Readings were performed on a Pherastar Plus (BMG Labtech). λ Excitation 540 nm; λ Emission 590 nm.

Sequence of USP30 (Q70CQ3 57-517): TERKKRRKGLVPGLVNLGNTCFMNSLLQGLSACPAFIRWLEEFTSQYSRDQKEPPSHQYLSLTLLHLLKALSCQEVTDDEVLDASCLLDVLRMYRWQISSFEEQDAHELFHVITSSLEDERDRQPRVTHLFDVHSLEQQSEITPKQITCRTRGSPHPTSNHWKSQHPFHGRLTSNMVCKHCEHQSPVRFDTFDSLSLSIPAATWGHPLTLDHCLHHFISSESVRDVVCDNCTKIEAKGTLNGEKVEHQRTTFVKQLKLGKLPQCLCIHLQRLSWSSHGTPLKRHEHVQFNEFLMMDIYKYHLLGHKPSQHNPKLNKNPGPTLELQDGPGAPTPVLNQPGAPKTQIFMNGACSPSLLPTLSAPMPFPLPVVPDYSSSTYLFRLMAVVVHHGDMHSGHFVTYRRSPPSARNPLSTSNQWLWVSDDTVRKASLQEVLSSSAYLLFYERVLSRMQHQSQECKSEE

| Compound | pIC50 |
| --- | --- |
| N#CN1CCC(c2cc(-c3ccc4ccccc4c3)n[nH]2)C1 (stereo not shown) [Example 18, 3-(3-(Naphthalen-2-yl)-1H-pyrazol-5-yl)pyrrolidine-1-carbonitrile] | 6.00 to 7.00 |
| C[C@H]1CN(C#N)C[C@@H]1c1[nH]nc(-c2cccc(-c3ccccc3)c2)c1F [Example 22] | > 7.00 |
| C[C@H]1CN(C#N)C[C@@H]1c1[nH]nc(-c2cccc(-c3ccccc3)c2)c1F [Example 23] | 6.00 to 7.00 |
| C[C@@H]1CN(C#N)C[C@H]1c1cc(-c2cccc(-c3ccccc3)c2)nn1C [Example 24] | 6.00 to 7.00 |
| C[C@@H]1CN(C#N)C[C@H]1c1cc(-c2cccc(-c3ccccc3)c2)n(C)n1 [Example 25] | 6.00 to 7.00 |
| N#CN1CCC(c2cc(-c3cccc(-c4cccnc4)c3)n[nH]2)C1 (stereo not shown) [Example 26, 3-(3-(3-(Pyridin-3-yl)phenyl)-1H-pyrazol-5-yl)pyrrolidine-1-carbonitrile] | 6.00 to 7.00 |
| CC1CC(c2cc(-c3cccc(-c4ccccc4)c3)n[nH]2)CN1C#N (stereo not shown) [Example 27, 4-(3-([1,1′-Biphenyl]-3-yl)-1H-pyrazol-5-yl)-2-methylpyrrolidine-1-carbonitrile] | 5.00 to 6.00 |
| N#CN1CCC(c2cc(-c3cccc(-c4ccncc4)c3)n[nH]2)C1 (stereo not shown) [Example 28, 3-(3-(3-(Pyridin-4-yl)phenyl)-1H-pyrazol-5-yl)pyrrolidine-1-carbonitrile] | 6.00 to 7.00 |
| N#CN1CCC(c2cc(-c3ccc(-c4ccccc4)cc3)[nH]n2)C1 (stereo not shown) [Example 35, 3-(5-([1,1′-Biphenyl]-4-yl)-1H-pyrazol-3-yl)pyrrolidine-1-carbonitrile] | 6.00 to 7.00 |
| N#CN1CCC(c2cc(-c3cncc(-c4ccccc4)c3)[nH]n2)C1 (stereo not shown) [Example 36, 3-(5-(5-Phenylpyridin-3-yl)-1H-pyrazol-3-yl)pyrrolidine-1-carbonitrile] | 6.00 to 7.00 |
| N#CN1CCC(c2cc(-c3cccc(-c4ccccc4)n3)[nH]n2)C1 (stereo not shown) [Example 37, 3-(5-(6-Phenylpyridin-2-yl)-1H-pyrazol-3-yl)pyrrolidine-1-carbonitrile] | 6.00 to 7.00 |
| N#CN1CCC(c2cc(-c3ccnc(-c4ccccc4)c3)[nH]n2)C1 (stereo not shown) [Example 38, 3-(5-(2-Phenylpyridin-4-yl)-1H-pyrazol-3-yl)pyrrolidine-1-carbonitrile] | 6.00 to 7.00 |
| N#CN1CCC(c2cc(-c3ccc(-c4ccccc4)nc3)n[nH]2)C1 (stereo not shown) [Example 40] | 6.00 to 7.00 |
| N#CN1CCC(c2cc(-c3ccnc(-c4cccnc4)c3)n[nH]2)C1 (stereo not shown) [Example 47, 3-(3-([2,3′-Bipyridin]-4-yl)-1H-pyrazol-5-yl)pyrrolidine-1-carbonitrile] | 6.00 to 7.00 |
| N#CN1CCC(c2cc(NC(=O)c3ccccc3)n[nH]2)C1 (stereo not shown) [Example 50, N-(3-(1-Cyanopyrrolidin-3-yl)-1H-pyrazol-5-yl)benzamide] | 6.00 to 7.00 |
| N#CN1CCC(c2cc(NC(=O)Cc3ccccc3)n[nH]2)C1 (stereo not shown) [Example 51] | 6.00 to 7.00 |
| N#CN1CCC(c2noc(-c3cccc(-c4ccccc4)c3)n2)C1 (stereo not shown) [Example 55] | > 7.00 |
| N#CN1CC[C@@H](c2noc(C3CCN(c4ncccn4)CC3)n2)C1 [Example 64, (R)-3-(5-(1-(Pyrimidin-2-yl)piperidin-4-yl)-1,2,4-oxadiazol-3-yl)pyrrolidine-1-carbonitrile] | 5.00 to 6.00 |
| N#CN1CCC(c2nc3ccc(-c4ccccc4OCc4ccccc4)cc3[nH]2)C1 (stereo not shown) [Example 73, 3-(6-(2-(Benzyloxy)phenyl)-1H-benzo[d]imidazol-2-yl)pyrrolidine-1-carbonitrile] | 6.00 to 7.00 |
| N#CN1CCC(c2nc3ccc(-c4ccc(C(N)=O)cc4)cc3[nH]2)C1 (stereo not shown) [Example 74, 4-(2-(1-Cyanopyrrolidin-3-yl)-1H-benzo[d]imidazol-6-yl)benzamide] | 6.00 to 7.00 |

Second part, the compound after the results:

| pIC50 | Compound |
| --- | --- |
| > 7.00 | N#CN1CCC(c2[nH]nc(-c3cccc(-c4ccccc4)c3)c2F)C1 (stereo not shown) [Example 15, 3-(3-([1,1′-Biphenyl]-3-yl)-4-fluoro-1H-pyrazol-5-yl)pyrrolidine-1-carbonitrile] |
| 6.00 to 7.00 | N#CN1CCC(c2cc(-c3cccc(-c4ccc(Cl)cc4)c3)n[nH]2)C1 (stereo not shown) [Example 29, 3-(3-(4′-Chloro-[1,1′-biphenyl]-3-yl)-1H-pyrazol-5-yl)pyrrolidine-1-carbonitrile] |
| 6.00 to 7.00 | COc1ccc(-c2cccc(-c3cc(C4CCN(C#N)C4)[nH]n3)c2)cc1 (stereo not shown) [Example 30, 3-(3-(4′-Methoxy-[1,1′-biphenyl]-3-yl)-1H-pyrazol-5-yl)pyrrolidine-1-carbonitrile] |
| 5.00 to 6.00 | Cn1cc(-c2cccc(-c3cc(C4CCN(C#N)C4)n[nH]3)c2)cn1 (stereo not shown) [Example 31, 3-(5-(3-(1-Methyl-1H-pyrazol-4-yl)phenyl)-1H-pyrazol-3-yl)pyrrolidine-1-carbonitrile] |
| 5.00 to 6.00 | N#CN1CC[C@@H](c2cc(-c3cccc(-c4cnoc4)c3)[nH]n2)C1 [Example 32, 3-(5-(3-(Isoxazol-4-yl)phenyl)-1H-pyrazol-3-yl)pyrrolidine-1-carbonitrile] |
| 6.00 to 7.00 | N#CN1CCC(c2cc(-c3cccc(-c4cnoc4)c3)[nH]n2)C1 (stereo not shown) [Example 33, 3-(5-(3-(Isoxazol-4-yl)phenyl)-1H-pyrazol-3-yl)pyrrolidine-1-carbonitrile] |
| 5.00 to 6.00 | Cn1cnc(-c2cccc(-c3cc(C4CCN(C#N)C4)n[nH]3)c2)c1 (stereo not shown) [Example 34, 3-(5-(3-(1-Methyl-1H-imidazol-4-yl)phenyl)-1H-pyrazol-3-yl)pyrrolidine-1-carbonitrile] |
| 5.00 to 6.00 | N#CN1CCC(c2noc(-c3ccc(-c4ccccc4)[nH]c3=O)n2)C1 (stereo not shown) [Example 52, 3-(5-(2-Oxo-6-phenyl-1,2-dihydropyridin-3-yl)-1,2,4-oxadiazol-3-yl)pyrrolidine-1-carbonitrile] |
| 6.00 to 7.00 | N#CN1CCC(c2noc(-c3cc(-c4ccccc4)nc4ccccc34)n2)C1 (stereo not shown) [Example 53, 3-(5-(2-Phenylquinolin-4-yl)-1,2,4-oxadiazol-3-yl)pyrrolidine-1-carbonitrile] |
| 6.00 to 7.00 | N#CN1CCC(c2noc(-c3ccc4ncsc4c3)n2)C1 (stereo not shown) [Example 54, 3-(5-(Benzo[d]thiazol-6-yl)-1,2,4-oxadiazol-3-yl)pyrrolidine-1-carbonitrile] |
| 5.00 to 6.00 | Cc1ccc2cc(-c3nc(C4CCN(C#N)C4)no3)ccc2n1 (stereo not shown) [Example 56, 3-(5-(2-Methylquinolin-6-yl)-1,2,4-oxadiazol-3-yl)pyrrolidine-1-carbonitrile] |
| 6.00 to 7.00 | N#CN1CCC(c2noc(-c3cc(Cl)cc(OC(F)(F)F)c3)n2)C1 (stereo not shown) [Example 57, 3-(5-(3-Chloro-5-(trifluoromethoxy)phenyl)-1,2,4-oxadiazol-3-yl)pyrrolidine-1-carbonitrile] |
| 5.00 to 6.00 | COc1cc(-c2nc(C3CCN(C#N)C3)no2)nc2ccccc12 (stereo not shown) [Example 58, 3-(5-(4-Methoxyquinolin-2-yl)-1,2,4-oxadiazol-3-yl)pyrrolidine-1-carbonitrile] |
| 5.00 to 6.00 | N#CN1CCC(c2noc(-c3ccccc3OCc3ccccc3)n2)C1 (stereo not shown) [Example 59, 3-(5-(2-(Benzyloxy)phenyl)-1,2,4-oxadiazol-3-yl)pyrrolidine-1-carbonitrile] |
| 5.00 to 6.00 | N#CN1CCC(c2noc(-c3ccc(Br)cc3)n2)C1 (stereo not shown) [Example 60, 3-(5-(4-Bromophenyl)-1,2,4-oxadiazol-3-yl)pyrrolidine-1-carbonitrile] |
| 5.00 to 6.00 | N#CN1CCC(c2noc(-c3ccc(N4CCOCC4)cc3)n2)C1 (stereo not shown) [Example 61, 3-(5-(4-Morpholinophenyl)-1,2,4-oxadiazol-3-yl)pyrrolidine-1-carbonitrile] |
| 5.00 to 6.00 | CO[C@@H]1CCN(c2ccc(-c3nc(C4CCN(C#N)C4)no3)cc2)C1 (stereo partly drawn) [Example 62, 3-(5-(4-((R)-3-Methoxypyrrolidin-1-yl)phenyl)-1,2,4-oxadiazol-3-yl)pyrrolidine-1-carbonitrile] |
| 6.00 to 7.00 | N#CN1CC[C@@H](c2noc(-c3cc(-c4ccccc4)ccn3)n2)C1 [Example 63, (R)-3-(5-(4-Phenylpyridin-2-yl)-1,2,4-oxadiazol-3-yl)pyrrolidine-1-carbonitrile] |
| 5.00 to 6.00 | N#CN1CC[C@@H](c2noc(-c3ccnc(N4CCc5ccccc5C4)c3)n2)C1 [Example 65, (R)-3-(5-(2-(3,4-Dihydroisoquinolin-2(1H)-yl)pyridin-4-yl)-1,2,4-oxadiazol-3-yl)pyrrolidine-1-carbonitrile] |
| 6.00 to 7.00 | Cn1cc(-c2ccc(-c3nc(C4CCN(C#N)C4)no3)cc2)cn1 (stereo not shown) [Example 66, 3-(5-(4-(1-Methyl-1H-pyrazol-4-yl)phenyl)-1,2,4-oxadiazol-3-yl)pyrrolidine-1-carbonitrile] |
| 5.00 to 6.00 | N#CN1CCCC1c1noc(-c2ccc(-c3ccccc3)cc2)n1 (stereo not shown) [Example 67, 2-(5-([1,1′-Biphenyl]-4-yl)-1,2,4-oxadiazol-3-yl)pyrrolidine-1-carbonitrile] |
| 6.00 to 7.00 | N#CN1CCCC1c1noc(-c2cccc(-c3ccccc3)c2)n1 (stereo not shown) [Example 68, 2-(5-([1,1′-Biphenyl]-3-yl)-1,2,4-oxadiazol-3-yl)pyrrolidine-1-carbonitrile] |
| 6.00 to 7.00 | N#CN1CCC(c2noc(C3CCN(c4ccccc4)C3)n2)C1 (stereo not shown) [Example 69, 3-(5-(1-Phenylpyrrolidin-3-yl)-1,2,4-oxadiazol-3-yl)pyrrolidine-1-carbonitrile] |
| 6.00 to 7.00 | Cn1cc(-c2cc(-c3nc([C@@H]4CCN(C#N)C4)no3)ccc2F)cn1 [Example 70, (R)-3-(5-(4-Fluoro-3-(1-methyl-1H-pyrazol-4-yl)phenyl)-1,2,4-oxadiazol-3-yl)pyrrolidine-1-carbonitrile] |
| 6.00 to 7.00 | COc1cc(-c2nc([C@@H]3CCN(C#N)C3)no2)ccc1-c1cnn(C)c1 [Example 71, (R)-3-(5-(3-Methoxy-4-(1-methyl-1H-pyrazol-4-yl)phenyl)-1,2,4-oxadiazol-3-yl)pyrrolidine-1-carbonitrile] |
| 6.00 to 7.00 | N#Cc1cccc(-c2ccc3nc(C4CCN(C#N)C4)[nH]c3c2)c1 (stereo not shown) [Example 72, 3-(6-(3-Cyanophenyl)-1H-benzo[d]imidazol-2-yl)pyrrolidine-1-carbonitrile] |
